Entries after “also recorded” stand apart in the source; their conditions may differ.
How the values were obtained:
human Th1/Th17 cells = experiment: In vitro assay using activated human T-cells differentiated into Th1/Th17 cells; cytokines released in the supernatant; type: cell-based
Protocol: CD4+ T cells were first negatively isolated from human peripheral blood of healthy donors using RosetteSep® separation system from STEMCELL.
Subsequently, CD4+ T cells were activated by crosslinking the cell surface proteins CD3 and CD28 with specific antibodies.
To induce Th1/Th17 differentiation, activated CD4+ T cells were then cultured in flasks at density of 2-5×10^6 cells per ml of culture in X-VIVO 15 serum-free medium in presence of growth and differentiation factors cocktail, containing the following: • rhIL-2 at 10 ng/ml • rhTGF-β at 10 ng/ml • rhIL-1β at 10 ng/ml • rhIL-6 at 10 ng/ml • rhIL-23 at 20 ng/ml • Antibody anti-IL-4 at 1 μg/ml • Antibody anti-IL-13 at 1 μg/ml
Culture media had been refreshed every second day and T cells were cultured up to 5-7 days to allow a complete differentiation into Th1/Th17 cells.
Once the T cells are differentiated into Th1/Th17 cells, cells are rinsed from the differentiation media and placed in assay media (X-VIVO 15 media containing 10 ng/ml rhIL-2 only) at the final concentration of 1-1.5×10^6 cells/ml in wells with 0.250 ml cell suspension per well (0.25-0.375×10^6 cells/well/sample) with and without test compound treatment for 24 hours. At the termination time point, the effect of anti-inflammatory drugs is assessed by measuring the level of phenotype related cytokines released in the cell culture supernatants. Duplicates and cells from different donors are used for each treatment.
After differentiation for 5-6 days, all the cells were carefully washed and placed in growth media containing IL-2 (X-VIVO+10 ng/ml IL-2) at a final concentration of 1-1.5×10^6 cells/ml. […] Assays were performed in duplicates and included undifferentiated human T cells (negative control) and treated or untreated differentiated human Th1/Th17 cells. All cells were cultured under similar conditions in assay media containing 0.1% DMSO with or without test compounds.
Th1/Th17 cells were treated for 24 hours with or without test compounds.
Supernatants were collected from all samples and assessed for cytokine expression (IL-6, IL-8, IL-17, IL-22 and TNF-α). All cytokines were measured (as pg/ml) using MSD kits except IL-22 which was measured by ELISA.
Data analysis and graphs were made in Excel or GraphPad Prism. Statistical analysis was made using 1 way ANOVA corrected by Dunnett's Multiple Comparison Test.

[1] = tested on: keratinocyte proliferation; details: cited from earlier work
[2] = PDE4 inhibitor 1 μM alone or in combination with calcipotriol 100 nM
[3] = test compound alone, 24 hours, ELISA
[4] = vitamin D analogue 100 nM in combination with Compound A 1 μM

COc1cccc(Nc2c(C(N)=O)cnc3c(C)cc(S(=O)(=O)c4cccc(C(=O)N(C)C)c4)cc23)c1.Cl [GSK256066, 6-[3-(N,N-dimethylcarbamoyl)phenylsulfonyl]-4-(3-methoxyphenylamino)-8-methylquinoline-3-carboxamide hydrochloride]
expression and secretion of IL-22 (human Th1/Th17 cells; [2]): comparable efficacy to Compound A

CCCNC(=O)COc1c(C(=O)Cc2ccnc(Cl)c2Cl)ccc(OC)c1OC [Compound A, 2-{6-[2-(2,3-dichloropyridin-4-yl)acetyl]-2,3-dimethoxyphenoxy}-N-propylacetamide]
expression of IL-22 (human Th1/Th17 cells; PDE4 inhibitor 1 μM alone, compared to vehicle treated control): increases
expression of IL-6 (human Th1/Th17 cells; test compound alone, 24 hours): weakly; also recorded: significantly inhibits
expression of IL-8 (human Th1/Th17 cells; test compound alone, 24 hours): did not have any effect
expression of IL-17 (human Th1/Th17 cells; test compound alone, 24 hours): to some degree
expression of TNFα (human Th1/Th17 cells; test compound alone, 24 hours): strongly decreased; also recorded: significantly inhibits
expression of IL-22 (human Th1/Th17 cells; [3]): dose-dependent upregulation; also recorded: increased; also recorded: significantly increases

CCOc1ccc(-c2nc(-c3cccc(C(=O)O)n3)cs2)cc1OCC [Tetomilast, 6-[2-(3,4-diethoxyphenyl)thiazol-4-yl]pyridine-2-caboxylic acid]
expression and secretion of IL-22 (human Th1/Th17 cells; [2]): comparable efficacy to Compound A

C=C1/C(=C\C=C2/CCC[C@]3(C)[C@@H]([C@H](C)OCCC(C)(C)O)CC[C@@H]23)C[C@@H](O)C[C@@H]1O [maxacalcitol]
expression of IL-22 (human Th1/Th17 cells; [3]): downregulate
expression and secretion of IL-22 (human Th1/Th17 cells; [4]): comparable efficacy as Calcipotriol

C=C1/C(=C\C=C2/CCC[C@]3(C)[C@@H]([C@H](C)CCCC(C)(C)O)CC[C@@H]23)C[C@@H](O)C[C@@H]1O [calcitriol]
expression of IL-22 (human Th1/Th17 cells; [3]): downregulate
expression and secretion of IL-22 (human Th1/Th17 cells; [4]): comparable efficacy as Calcipotriol

N#Cc1ccc(Oc2ccc3c(c2)COB3O)cc1 [AN2728, 4-(1-hydroxy-1,3-dihydro-2,1-benzoxaborol-5-yloxy)benzonitrile]
expression and secretion of IL-22 (human Th1/Th17 cells; [2]): comparable efficacy to Compound A

O=C(Nc1c(Cl)cncc1Cl)c1ccc(OC(F)F)c(OCC2CC2)c1 [Roflumilast, 3-(cyclopropylmethoxy)-N-(3,5-dichloropyridin-4-yl)4-(difluoromethoxy)benzamide]
expression and secretion of IL-22 (human Th1/Th17 cells; [2]): comparable efficacy to Compound A

C=C1/C(=C\C=C2/CCC[C@]3(C)[C@@H]([C@H](C)/C=C/[C@@H](O)C4CC4)CC[C@@H]23)C[C@@H](O)C[C@@H]1O [calcipotriol, Calcipotriol]
concentration required to affect keratinocyte proliferation [1]: 28 nM
upregulation of IL-22 expression (human Th1/Th17 cells; calcipotriol 10 pM together with Compound A 1 μM): lost
upregulation of IL-22 expression (human Th1/Th17 cells; calcipotriol 100 pM together with Compound A 1 μM): inhibited the upregulation
upregulation of IL-22 expression (human Th1/Th17 cells; calcipotriol 500 pM together with Compound A 1 μM): inhibited the upregulation
upregulation of IL-22 expression (human Th1/Th17 cells; calcipotriol 1 nM together with Compound A 1 μM): inhibited the upregulation
upregulation of IL-22 expression (human Th1/Th17 cells; calcipotriol 100 nM together with Compound A 1 μM): inhibited the upregulation
expression of IL-6 (human Th1/Th17 cells; test compound alone, 24 hours): did not have any effect
expression of IL-8 (human Th1/Th17 cells; test compound alone, 24 hours): strongly inhibited
expression of IL-17 (human Th1/Th17 cells; test compound alone, 24 hours): to some extent
expression of TNFα (human Th1/Th17 cells; test compound alone, 24 hours): did not have any effect
expression of IL-22 (human Th1/Th17 cells; [3]): strongly inhibiting; also recorded: downregulate; also recorded: strongly inhibited
expression of IL-22 (human Th1/Th17 cells; test compound alone, 24 hours, ELISA, listed as Calcipotriol): significantly inhibits
expression of IL-8 (human Th1/Th17 cells; test compound alone, 24 hours, listed as Calcipotriol): inhibits
expression and secretion of IL-22 (human Th1/Th17 cells; vitamin D analogue 100 nM alone, compared to vehicle treated control): significantly inhibits
expression and secretion of IL-22 (human Th1/Th17 cells; [4]): comparable efficacy as Calcipotriol

C=C1/C(=C\C=C2/CCC[C@]3(C)[C@@H]([C@H](C)CC[C@@H](O)C(C)C)CC[C@@H]23)C[C@@H](O)C[C@@H]1O [tacalcitol]
expression of IL-22 (human Th1/Th17 cells; [3]): downregulate
expression and secretion of IL-22 (human Th1/Th17 cells; [4]): comparable efficacy as Calcipotriol
